What was measured:
[1] = Population pharmacokinetic analysis (NONMEM) of intravenous PCM and its metabolites in plasma and urine of preterm neonates born below 32 weeks of gestation; assay type: in vivo; conditions: for fVG / fVS / fVO, distribution volume of metabolite as fraction of VP of PCM: V = fV×VP
Procedure: Two datasets were pooled in this study. […] The second dataset consisted of data from 83 neonates born before 32 weeks of gestation who were included in the Drug dosage Improvement in Neonates (DINO) study between September 2014 and July 2017. This study was conducted in four Dutch Neonatal Intensive Care Units. The Erasmus Medical Center ethics review board approved the protocols, and written informed consent from parents/legal guardians was obtained before study initiation (NL47409.078.14, MEC-2014-067, NCT02421068). […] The actual urine collection interval and volume varied and were recorded. Plasma samples of all patients were available. […] In dataset 2, the dosing schedule was based on current weight according to Wang et al. […] The dosing regimen could be adapted in individual patients by the treating physician. […] No urine samples were collected. […] For those BLOQ samples, the values obtained with the assay were still reported and these were used in the PopPK analysis. […] Processing and visualization of output from NONMEM were performed in R 4.2.3 (CRAN.R-project.org). Parameters were estimated using the first-order conditional estimation with interaction (FOCE + I) method. […] Parameter precision was obtained with the R covariance matrix. […] The stochastic model included interindividual variability (IIV) and residual variability (RUV). […] SD assumes that the standard deviation of the residual error is the sum of the additive and proportional components. Separate SD1 and SD2 values were tested for each dataset, compound and for plasma and urine samples. […] In those cases, linear interpolation was used for current weight between two existing current weight measurements of the particular patient. For implementation of continuous covariates (birthweight, current weight, GA, PNA, PMA, birthweight Z-score), linear, power, exponential, and sigmoidal functions were tested. For categorical covariates (gender, SGA), additive shift models were tested. Covariates were evaluated based on OFV by a stepwise forward inclusion (ΔOFV > 6.64, P < 0.01) and backward deletion (ΔOFV < 10.83, P > 0.001) process. Besides this, goodness of fit plots split for datasets and covariate quartiles, plots of individual eta-values versus covariate values (ETA plots), and reduction in inter-individual variability on the parameter of interest, were evaluated. A bootstrap analysis (n = 500) stratified on dataset, was performed to assess the robustness of the final model and parameter estimates. […] The NPDEs of urine samples were plotted together due to a limited number of samples per compound. […] This was done to illustrate the concentration-time profiles of each compound under the current practice of linear bodyweight-based dosing. […] In these simulations, the growth curves published by Anchieta et al.

[2] = adults; ref [3], [4]; cited from earlier work

fVG / fVS / fVO, distribution volume of metabolite as fraction of VP of PCM ([1]; final model estimate (RSE %)) | TVCLrG / TVCLrS / TVCLrO, typical renal clearance of metabolite, bootstrap ([1]; birthweight 985 g, PNA 5 days, bootstrap estimate (95% CI)) | TVCLrG / TVCLrS / TVCLrO, typical renal clearance of metabolite ([1]; birthweight 985 g, PNA 5 days, final model estimate (RSE %)) | fVG / fVS / fVO, distribution volume of metabolite as fraction of VP of PCM, bootstrap ([1]; bootstrap estimate (95% CI)) | θPNA50, PNA at which RFS reaches half of RFS0, bootstrap ([1]; PNA in days, bootstrap estimate (95% CI)) | θPNA50, PNA at which RFS reaches half of RFS0 ([1]; PNA in days, final model estimate (RSE %)) | non-linear formation of CYP2E1 pathway metabolites (PCM-cysteine and PCM-mercapturate) ([1]; among the dosages given in this study) | predicted difference in glucuronidation of PCM with PNA ([1]; between day 1 and day 30) | θBWb, power exponent of birthweight (BWb/985) on RFG, bootstrap ([1]; bootstrap estimate (95% CI)) | θBWc, power exponent of current weight (BWc/1012) on VP, bootstrap ([1]; bootstrap estimate (95% CI)) | VPP, distribution volume of the peripheral compartment, bootstrap ([1]; bootstrap estimate (95% CI), in L) | TVVP, typical distribution volume of the central compartment (VP), bootstrap ([1]; current weight 1012 g, bootstrap estimate (95% CI)) | TVVP, typical distribution volume of the central compartment (VP) ([1]; current weight 1012 g, final model estimate (RSE %)) | θBWb, power exponent of birthweight (BWb/985) on RFG ([1]; final model estimate (RSE %)) | θBWc, power exponent of current weight (BWc/1012) on VP ([1]; final model estimate (RSE %)) | VPP, distribution volume of the peripheral compartment ([1]; final model estimate (RSE %), in L) | contribution of glucuronidation to elimination in neonates ([1]; preterm neonates of this study) | SMILES | fraction of PCM metabolized into sulphate conjugate [2] [%] | fraction of administered PCM excreted unchanged in the urine [2] | fraction of administered dose metabolized via the oxidative route (NAPQI) [2]
0.6 (9) | 0.0428 (0.0383–0.0482) L/h | 0.0425 (5) L/h | 0.6 (0.5–0.8) | – | – | – | – | – | – | – | – | – | – | – | – | – | CC(=O)Nc1ccc(O[C@@H]2O[C@H](C(=O)O)[C@@H](O)[C@H](O)[C@H]2O)cc1 [PCM-glucuronide, paracetamol-glucuronide] | – | – | –
– | – | – | – | 8.71 (4.55–15.6) | 9.18 (23) | could not identify this non-linearity | sixfold | 0.487 (0.137–0.917) | 0.844 (0.659–1.05) | 0.247 (0.167–0.348) | 0.955 (0.775–1.030) L | 0.955 (3) L | 0.479 (45) | 0.836 (11) | 0.244 (12) | 5–15% | CC(=O)Nc1ccc(O)cc1 [PCM, paracetamol] | ~30 | 2–5% | 8–10%
0.326 (4) | – | – | 0.330 (0.300–0.417) | – | – | – | – | – | – | – | – | – | – | – | – | – | CC(=O)Nc1ccc(OS(=O)(=O)O)cc1 [PCM-sulfate, paracetamol-sulfate] | – | – | –
